Source: publication PMC6430017, “Structural and chemical insights into the covalent-allosteric inhibition of the protein kinase Akt” (Chemical Science, 2019)

Experiments:
[1] = biological target: PRKCD (PKC delta) (Homo sapiens, UniProt Q05655); experiment: SelectScreen Z'LYTE kinase profiling; type: biochemical; details: ATP at apparent KM
Experimental: (§1) protein kinases at a compound concentration of 1 µM. Measurements were performed in duplicates
(§2) and at the particular apparent ATP KM of each individual kinase employing the activity based Z’LYTE®
(§3) kinase assay of the SelectScreen® Kinase Profiling Services (ThermoFisher Scientific).
(§4) kinases at a compound concentration of 1 µM. Measurements were performed in duplicates and at
(§5) the particular apparent ATP KM of each individual kinase employing the activity based Z’LYTE® kinase
(§6) assay of the SelectScreen® Kinase Profiling Services (ThermoFisher Scientific).

[2] = biological target: PAK4 (Homo sapiens, UniProt O96013); experiment: SelectScreen Z'LYTE kinase profiling; type: biochemical; details: ATP at apparent KM
Experimental: as §1, §2, §3, §4, §5, §6

[3] = biological target: RPS6KA3 (RSK2) (Homo sapiens, UniProt P51812); experiment: SelectScreen Z'LYTE kinase profiling; type: biochemical; details: ATP at apparent KM
Experimental: as §1, §2, §3, §4, §5, §6

[4] = biological target: PIM1 (Homo sapiens, UniProt P11309); experiment: SelectScreen Z'LYTE kinase profiling; type: biochemical; details: ATP at apparent KM
Chain of PIM1 (P11309 whole entry): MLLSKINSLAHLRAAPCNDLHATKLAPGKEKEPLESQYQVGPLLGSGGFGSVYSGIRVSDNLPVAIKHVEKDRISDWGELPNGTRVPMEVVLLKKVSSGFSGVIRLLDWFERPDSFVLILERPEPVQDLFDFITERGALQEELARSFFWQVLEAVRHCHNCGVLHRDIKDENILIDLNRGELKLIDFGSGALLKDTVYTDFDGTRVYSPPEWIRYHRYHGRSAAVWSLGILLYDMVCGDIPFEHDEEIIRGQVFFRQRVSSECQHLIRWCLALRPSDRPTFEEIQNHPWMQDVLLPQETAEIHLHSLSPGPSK
Experimental: as §1, §2, §3, §4, §5, §6

[5] = biological target: RET (Homo sapiens, UniProt P07949); experiment: SelectScreen Z'LYTE kinase profiling; type: biochemical; details: ATP at apparent KM
Experimental: as §1, §2, §3, §4, §5, §6

[6] = biological target: AURKB (Aurora B) (Homo sapiens, UniProt Q96GD4); experiment: SelectScreen Z'LYTE kinase profiling; type: biochemical; details: ATP at apparent KM
Experimental: as §1, §2, §3, §4, §5, §6

[7] = biological target: MARK1 (MARK) (Homo sapiens, UniProt Q9P0L2); experiment: SelectScreen Z'LYTE kinase profiling; type: biochemical; details: ATP at apparent KM
Chain of MARK1 (MARK) (Q9P0L2 whole entry): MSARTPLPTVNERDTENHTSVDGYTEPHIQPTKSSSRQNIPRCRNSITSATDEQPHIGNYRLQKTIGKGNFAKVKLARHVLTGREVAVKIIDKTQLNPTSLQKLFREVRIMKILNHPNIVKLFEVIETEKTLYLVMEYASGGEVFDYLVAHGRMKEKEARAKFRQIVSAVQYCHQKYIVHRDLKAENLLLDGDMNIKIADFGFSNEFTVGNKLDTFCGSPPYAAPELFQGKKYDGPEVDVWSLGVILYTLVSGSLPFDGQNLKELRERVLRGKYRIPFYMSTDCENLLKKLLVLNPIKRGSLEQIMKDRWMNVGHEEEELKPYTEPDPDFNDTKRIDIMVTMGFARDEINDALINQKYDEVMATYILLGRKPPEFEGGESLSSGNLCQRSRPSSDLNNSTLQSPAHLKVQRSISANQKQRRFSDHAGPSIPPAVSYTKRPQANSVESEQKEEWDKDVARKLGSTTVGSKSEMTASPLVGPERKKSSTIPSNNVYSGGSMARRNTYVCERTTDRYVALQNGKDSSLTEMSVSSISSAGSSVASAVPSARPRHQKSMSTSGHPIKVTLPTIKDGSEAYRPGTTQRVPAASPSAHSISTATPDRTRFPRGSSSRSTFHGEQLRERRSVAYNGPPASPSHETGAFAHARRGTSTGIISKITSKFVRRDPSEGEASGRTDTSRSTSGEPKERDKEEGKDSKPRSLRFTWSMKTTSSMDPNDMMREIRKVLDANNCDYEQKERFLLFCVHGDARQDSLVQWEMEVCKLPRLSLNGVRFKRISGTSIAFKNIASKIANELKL
Experimental: as §1, §2, §3, §4, §5, §6

[8] = Phase I metabolic stability assay; details: human, liver microsomes
Experimental: For this purpose, we used a microsomal stability assay that is a good predictor for phase I metabolic stability.[50]
Metabolic stability under oxidative conditions was determined by LCMS-based measuring of
degradation of compounds at 3 µM in human and murine liver microsomes over 60 minutes at 37 °C
Calculating the compound half-life t1/2, the in vitro intrinsic clearance CLint is

[9] = biological target: GRK4 (Homo sapiens, UniProt P32298); experiment: SelectScreen Z'LYTE kinase profiling; type: biochemical; details: ATP at apparent KM
Experimental: as §1, §2, §3, §4, §5, §6

[10] = biological target: T1, TXK (Homo sapiens, UniProt P42681); experiment: SelectScreen Z'LYTE kinase profiling; type: biochemical; details: ATP at apparent KM
T1 sequence (P42681 1-527): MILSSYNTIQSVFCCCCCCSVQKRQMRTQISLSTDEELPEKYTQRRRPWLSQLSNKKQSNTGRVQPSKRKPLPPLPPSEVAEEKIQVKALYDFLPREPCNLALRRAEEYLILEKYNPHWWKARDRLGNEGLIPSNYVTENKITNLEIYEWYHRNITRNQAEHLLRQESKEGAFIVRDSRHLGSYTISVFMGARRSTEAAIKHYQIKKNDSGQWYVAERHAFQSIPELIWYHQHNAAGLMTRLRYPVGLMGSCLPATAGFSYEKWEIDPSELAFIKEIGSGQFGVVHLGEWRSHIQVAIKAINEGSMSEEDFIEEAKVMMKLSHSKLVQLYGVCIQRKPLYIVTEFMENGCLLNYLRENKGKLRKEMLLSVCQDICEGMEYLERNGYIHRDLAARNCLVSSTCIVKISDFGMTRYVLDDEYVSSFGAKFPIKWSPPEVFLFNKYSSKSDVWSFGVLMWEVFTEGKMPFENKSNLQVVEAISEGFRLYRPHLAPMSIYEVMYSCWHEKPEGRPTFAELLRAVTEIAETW
Experimental: as §1, §2, §3, §4, §5, §6

[11] = biological target: MAP4K5 (KHS1) (Homo sapiens, UniProt Q9Y4K4); experiment: SelectScreen Z'LYTE kinase profiling; type: biochemical; details: ATP at apparent KM
Chain of MAP4K5 (KHS1) (Q9Y4K4 whole entry): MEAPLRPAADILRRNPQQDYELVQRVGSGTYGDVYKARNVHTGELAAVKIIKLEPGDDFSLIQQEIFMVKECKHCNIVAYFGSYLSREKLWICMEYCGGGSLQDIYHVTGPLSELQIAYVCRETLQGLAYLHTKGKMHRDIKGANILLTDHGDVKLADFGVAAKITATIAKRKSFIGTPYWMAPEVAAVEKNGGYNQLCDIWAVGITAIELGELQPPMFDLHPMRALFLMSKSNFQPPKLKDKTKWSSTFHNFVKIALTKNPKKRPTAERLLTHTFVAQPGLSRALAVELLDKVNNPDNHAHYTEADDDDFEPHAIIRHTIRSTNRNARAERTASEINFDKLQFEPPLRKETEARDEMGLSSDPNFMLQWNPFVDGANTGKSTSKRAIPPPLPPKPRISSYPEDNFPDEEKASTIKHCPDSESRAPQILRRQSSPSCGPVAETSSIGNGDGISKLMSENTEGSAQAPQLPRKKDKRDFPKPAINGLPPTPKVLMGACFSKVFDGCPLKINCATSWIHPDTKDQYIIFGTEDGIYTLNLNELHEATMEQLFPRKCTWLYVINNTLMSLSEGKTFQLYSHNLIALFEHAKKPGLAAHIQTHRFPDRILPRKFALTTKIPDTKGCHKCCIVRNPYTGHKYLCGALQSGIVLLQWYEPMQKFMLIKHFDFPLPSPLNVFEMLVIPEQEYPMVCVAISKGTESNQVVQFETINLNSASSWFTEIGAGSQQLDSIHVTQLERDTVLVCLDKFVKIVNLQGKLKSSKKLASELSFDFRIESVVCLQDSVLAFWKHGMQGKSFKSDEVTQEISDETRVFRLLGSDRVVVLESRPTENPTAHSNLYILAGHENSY
Experimental: as §1, §2, §3, §4, §5, §6

[12] = biological target: CAMK1D (CaMKI delta) (Homo sapiens, UniProt Q8IU85); experiment: SelectScreen Z'LYTE kinase profiling; type: biochemical; details: ATP at apparent KM
Experimental: as §1, §2, §3, §4, §5, §6

[13] = biological target: AMPK A2/B1/G1 (Homo sapiens, UniProt P54646); experiment: SelectScreen Z'LYTE kinase profiling; type: biochemical; details: ATP at apparent KM
Chain of AMPK A2/B1/G1 (P54646 whole entry): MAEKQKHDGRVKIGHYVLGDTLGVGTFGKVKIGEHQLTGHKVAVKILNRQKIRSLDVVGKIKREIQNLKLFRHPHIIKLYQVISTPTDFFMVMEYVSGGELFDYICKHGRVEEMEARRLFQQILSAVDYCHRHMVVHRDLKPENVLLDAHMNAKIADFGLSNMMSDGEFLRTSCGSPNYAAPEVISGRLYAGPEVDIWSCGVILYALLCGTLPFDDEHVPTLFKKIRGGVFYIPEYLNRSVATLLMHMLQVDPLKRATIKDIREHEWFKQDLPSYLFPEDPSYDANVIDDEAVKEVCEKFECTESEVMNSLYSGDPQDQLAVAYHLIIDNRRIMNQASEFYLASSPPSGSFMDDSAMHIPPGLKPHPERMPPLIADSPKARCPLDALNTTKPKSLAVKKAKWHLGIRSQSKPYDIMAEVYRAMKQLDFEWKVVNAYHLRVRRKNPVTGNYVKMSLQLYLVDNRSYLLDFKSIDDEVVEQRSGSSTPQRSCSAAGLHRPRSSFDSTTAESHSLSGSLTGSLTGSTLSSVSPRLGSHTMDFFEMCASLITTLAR
Chain of AMPK A2/B1/G1 (Q9Y478 whole entry partner): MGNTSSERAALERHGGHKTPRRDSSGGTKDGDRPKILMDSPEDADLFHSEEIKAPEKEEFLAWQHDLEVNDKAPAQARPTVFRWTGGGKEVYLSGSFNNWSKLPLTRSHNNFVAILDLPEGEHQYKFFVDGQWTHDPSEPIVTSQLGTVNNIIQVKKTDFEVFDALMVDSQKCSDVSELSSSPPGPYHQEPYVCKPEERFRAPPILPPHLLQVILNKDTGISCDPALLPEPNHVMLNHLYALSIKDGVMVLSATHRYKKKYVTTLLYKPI
Chain of AMPK A2/B1/G1 (P54619 whole entry partner): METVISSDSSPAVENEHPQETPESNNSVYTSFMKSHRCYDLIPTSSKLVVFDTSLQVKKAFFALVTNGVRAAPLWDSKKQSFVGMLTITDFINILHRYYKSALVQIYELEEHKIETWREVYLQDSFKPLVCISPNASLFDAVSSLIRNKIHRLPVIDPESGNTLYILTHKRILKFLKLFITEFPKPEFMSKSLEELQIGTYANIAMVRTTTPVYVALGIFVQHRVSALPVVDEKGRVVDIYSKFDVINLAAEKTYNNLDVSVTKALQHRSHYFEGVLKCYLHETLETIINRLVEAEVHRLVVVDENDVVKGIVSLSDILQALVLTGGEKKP
Experimental: as §1, §2, §3, §4, §5, §6

[14] = biological target: LCK (Homo sapiens, UniProt P06239); experiment: SelectScreen Z'LYTE kinase profiling; type: biochemical; details: ATP at apparent KM
Experimental: as §1, §2, §3, §4, §5, §6

[15] = biological target: T2, TBK1 (Homo sapiens, UniProt Q9UHD2); experiment: SelectScreen Z'LYTE kinase profiling; type: biochemical; details: ATP at apparent KM
T2 sequence (Q9UHD2 1-729): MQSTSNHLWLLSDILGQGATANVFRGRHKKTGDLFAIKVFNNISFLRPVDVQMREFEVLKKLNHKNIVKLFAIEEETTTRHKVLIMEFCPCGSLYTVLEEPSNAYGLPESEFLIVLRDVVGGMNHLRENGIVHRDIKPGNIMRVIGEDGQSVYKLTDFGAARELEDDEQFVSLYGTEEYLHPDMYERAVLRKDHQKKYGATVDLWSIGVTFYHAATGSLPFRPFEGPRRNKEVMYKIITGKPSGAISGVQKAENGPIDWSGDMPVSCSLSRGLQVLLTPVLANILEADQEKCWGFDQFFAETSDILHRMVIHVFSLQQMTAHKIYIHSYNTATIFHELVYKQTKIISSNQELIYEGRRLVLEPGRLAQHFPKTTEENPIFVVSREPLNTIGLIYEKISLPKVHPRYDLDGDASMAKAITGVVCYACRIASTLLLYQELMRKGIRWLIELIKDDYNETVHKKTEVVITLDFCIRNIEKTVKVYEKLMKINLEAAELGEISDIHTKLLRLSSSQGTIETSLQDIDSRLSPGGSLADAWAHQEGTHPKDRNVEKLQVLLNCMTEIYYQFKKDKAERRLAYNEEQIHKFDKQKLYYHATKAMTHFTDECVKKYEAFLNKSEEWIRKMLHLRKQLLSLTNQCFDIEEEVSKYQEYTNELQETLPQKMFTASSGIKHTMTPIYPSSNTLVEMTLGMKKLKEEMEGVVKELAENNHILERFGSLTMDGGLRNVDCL

[16] = biological target: GRK5 (Homo sapiens, UniProt P34947); experiment: SelectScreen Z'LYTE kinase profiling; type: biochemical; details: ATP at apparent KM
Experimental: as §1, §2, §3, §4, §5, §6

[17] = biological target: T3, STK3 (MST2) (Homo sapiens, UniProt Q13188); experiment: SelectScreen Z'LYTE kinase profiling; type: biochemical; details: ATP at apparent KM
T3 sequence (Q13188 1-491): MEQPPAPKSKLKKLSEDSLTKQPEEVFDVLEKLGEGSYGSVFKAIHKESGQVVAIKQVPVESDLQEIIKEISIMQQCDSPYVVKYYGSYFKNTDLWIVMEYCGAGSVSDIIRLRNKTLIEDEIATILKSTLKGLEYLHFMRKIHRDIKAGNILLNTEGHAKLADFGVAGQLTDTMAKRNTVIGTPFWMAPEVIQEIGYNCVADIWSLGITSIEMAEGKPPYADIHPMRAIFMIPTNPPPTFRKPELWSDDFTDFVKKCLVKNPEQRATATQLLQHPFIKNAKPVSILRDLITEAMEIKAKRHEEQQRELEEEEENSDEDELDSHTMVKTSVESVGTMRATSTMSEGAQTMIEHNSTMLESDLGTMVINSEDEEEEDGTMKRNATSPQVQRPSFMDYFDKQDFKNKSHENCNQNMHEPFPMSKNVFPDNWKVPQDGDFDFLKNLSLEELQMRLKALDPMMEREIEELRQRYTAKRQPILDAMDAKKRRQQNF
Experimental: as §1, §2, §3, §4, §5, §6

[18] = biological target: MAPK3 (ERK1) (Homo sapiens, UniProt P27361); experiment: SelectScreen Z'LYTE kinase profiling; type: biochemical; details: ATP at apparent KM
Experimental: as §1, §2, §3, §4, §5, §6

[19] = biological target: TEK (Tie2) (Homo sapiens, UniProt Q02763); experiment: SelectScreen Z'LYTE kinase profiling; type: biochemical; details: ATP at apparent KM
Chain of TEK (Tie2) (Q02763 23-1124): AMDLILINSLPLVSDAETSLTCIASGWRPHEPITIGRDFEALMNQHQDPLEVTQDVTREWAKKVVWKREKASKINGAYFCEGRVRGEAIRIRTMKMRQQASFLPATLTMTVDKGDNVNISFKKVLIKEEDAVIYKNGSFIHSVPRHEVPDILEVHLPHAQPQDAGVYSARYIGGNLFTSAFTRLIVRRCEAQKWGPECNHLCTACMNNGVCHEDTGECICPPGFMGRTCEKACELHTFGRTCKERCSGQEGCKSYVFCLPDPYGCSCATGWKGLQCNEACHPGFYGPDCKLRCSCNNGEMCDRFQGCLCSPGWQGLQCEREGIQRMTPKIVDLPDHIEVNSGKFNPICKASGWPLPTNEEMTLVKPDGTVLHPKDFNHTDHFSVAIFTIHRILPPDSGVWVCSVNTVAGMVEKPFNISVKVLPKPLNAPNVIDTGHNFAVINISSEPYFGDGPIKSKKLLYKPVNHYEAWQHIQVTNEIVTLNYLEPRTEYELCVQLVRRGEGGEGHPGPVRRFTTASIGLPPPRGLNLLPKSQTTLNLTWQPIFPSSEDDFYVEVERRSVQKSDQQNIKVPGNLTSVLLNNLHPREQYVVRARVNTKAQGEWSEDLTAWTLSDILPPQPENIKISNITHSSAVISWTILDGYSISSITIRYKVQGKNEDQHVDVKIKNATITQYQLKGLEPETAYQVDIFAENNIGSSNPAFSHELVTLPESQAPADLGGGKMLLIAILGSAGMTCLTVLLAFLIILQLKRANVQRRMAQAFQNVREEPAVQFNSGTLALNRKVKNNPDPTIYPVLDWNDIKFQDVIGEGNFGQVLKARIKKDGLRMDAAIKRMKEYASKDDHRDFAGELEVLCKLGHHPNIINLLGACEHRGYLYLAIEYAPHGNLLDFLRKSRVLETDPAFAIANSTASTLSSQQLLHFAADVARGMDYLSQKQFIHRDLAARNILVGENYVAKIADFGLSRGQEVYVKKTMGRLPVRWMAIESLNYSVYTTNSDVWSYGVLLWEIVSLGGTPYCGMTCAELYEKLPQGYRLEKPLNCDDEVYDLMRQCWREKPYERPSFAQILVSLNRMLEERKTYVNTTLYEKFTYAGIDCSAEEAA
Experimental: as §1, §2, §3, §4, §5, §6

Chain of PRKCD (PKC delta) (Q05655 whole entry): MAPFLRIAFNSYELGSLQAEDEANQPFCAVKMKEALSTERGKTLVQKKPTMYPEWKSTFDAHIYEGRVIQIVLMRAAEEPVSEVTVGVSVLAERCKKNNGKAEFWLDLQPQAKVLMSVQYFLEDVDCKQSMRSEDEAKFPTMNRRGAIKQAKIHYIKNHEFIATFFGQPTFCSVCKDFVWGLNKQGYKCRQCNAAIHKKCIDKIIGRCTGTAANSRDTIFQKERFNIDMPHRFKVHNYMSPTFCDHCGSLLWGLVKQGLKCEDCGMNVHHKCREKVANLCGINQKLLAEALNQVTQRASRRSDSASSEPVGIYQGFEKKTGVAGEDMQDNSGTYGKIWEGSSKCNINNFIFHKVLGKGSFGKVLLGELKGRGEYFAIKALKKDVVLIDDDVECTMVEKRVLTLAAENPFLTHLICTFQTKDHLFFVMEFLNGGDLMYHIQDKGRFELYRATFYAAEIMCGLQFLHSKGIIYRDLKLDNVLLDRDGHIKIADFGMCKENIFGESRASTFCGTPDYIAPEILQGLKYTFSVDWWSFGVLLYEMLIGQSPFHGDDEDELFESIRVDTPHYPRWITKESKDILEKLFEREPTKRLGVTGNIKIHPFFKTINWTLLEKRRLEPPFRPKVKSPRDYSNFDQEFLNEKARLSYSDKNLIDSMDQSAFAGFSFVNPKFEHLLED

C=CC(=O)Nc1cc(NC(=O)NC2CCN(Cc3ccc(-c4nc5cc[nH]c(=O)c5cc4-c4ccccc4)cc3)CC2)ccc1Cl [compound 27]
inhibition at 1 µM [1]: 6%
inhibition at 1 µM [2]: 16%
inhibition at 1 µM [3]: 23%
inhibition at 1 µM [4]: -18%
inhibition at 1 µM [5]: 26%
inhibition at 1 µM [6]: 2%
inhibition at 1 µM [7]: 7%
half-life at 1 h, 3 µM [8]: 19 min
microsomal CLint at 3 µM [8]: 24 µL/min/mg
inhibition at 1 µM [9]: 11%
inhibition at 1 µM [10]: -9%
inhibition at 1 µM [11]: 5%
inhibition at 1 µM [12]: 12%
inhibition at 1 µM [13]: 77%
inhibition at 1 µM [14]: 4%
inhibition at 1 µM [15]: 3%
inhibition at 1 µM [16]: -2%
inhibition at 1 µM [17]: -3%
inhibition at 1 µM [18]: 3%
inhibition at 1 µM [19]: 5%

C=CC(=O)Nc1cccc(C(=O)NC2CCN(Cc3ccc(-c4nc5cc[nH]c(=O)c5cc4-c4ccccc4)cc3)CC2)c1 [30b]
inhibition at 1 µM [1]: 9%
inhibition at 1 µM [2]: 8%
inhibition at 1 µM [3]: 30%
inhibition at 1 µM [4]: -15%
inhibition at 1 µM [5]: 19%
inhibition at 1 µM [6]: 2%
inhibition at 1 µM [7]: 5%
half-life at 1 h, 3 µM [8]: 58 min
microsomal CLint at 3 µM [8]: 8 µL/min/mg
inhibition at 1 µM [9]: 6%
inhibition at 1 µM [10]: 2%
inhibition at 1 µM [11]: 18%
inhibition at 1 µM [12]: 3%
inhibition at 1 µM [13]: 40%
inhibition at 1 µM [14]: 8%
inhibition at 1 µM [15]: 5%
inhibition at 1 µM [16]: -1%
inhibition at 1 µM [17]: -19%
inhibition at 1 µM [18]: 3%
inhibition at 1 µM [19]: 6%

C=CC(=O)Nc1ccc2c(c1)n(C1CCN(Cc3ccc(-c4nc5cc[nH]c(=O)c5cc4-c4ccccc4)cc3)CC1)c(=O)n2C [24b]
inhibition at 1 µM [1]: 0%
inhibition at 1 µM [2]: 12%
inhibition at 1 µM [3]: 14%
inhibition at 1 µM [4]: -21%
inhibition at 1 µM [5]: 10%
inhibition at 1 µM [6]: 0%
inhibition at 1 µM [7]: 2%
half-life at 1 h, 3 µM [8]: 25 min
microsomal CLint at 3 µM [8]: 19 µL/min/mg
inhibition at 1 µM [9]: -1%
inhibition at 1 µM [10]: -5%
inhibition at 1 µM [11]: 3%
inhibition at 1 µM [12]: 9%
inhibition at 1 µM [13]: 20%
inhibition at 1 µM [14]: -3%
inhibition at 1 µM [15]: 4%
inhibition at 1 µM [16]: -10%
inhibition at 1 µM [17]: -13%
inhibition at 1 µM [18]: 0%
inhibition at 1 µM [19]: 2%
